Patent US20120009240A1, “Films for Delivery of a Therapeutic Agent” (priority 2010, published 2012)
Structures can show the parent of a compound that is named as a salt.

Assay: Saturation and payload limits for dip coating a polyester mesh (Parietex monofilament mesh) with bupivacaine HCl solution (FIG. 8)
Format: physicochemical
Conditions: polyester mesh without a polymer film
Description: Further, it is believed that spraying films on a medical device (e.g., mesh) compared to other conventional methods, such as dip coating, provides increased loading of the therapeutic agent.
More particularly FIG. 8 illustrates the loading limits for a polyester mesh (Parietex™ monofilament mesh) without a polymer film.

- saturation and payload limits for dip coating (solution in MeOH): 12 % w/v
- saturation and payload limits for dip coating (solution in water): 5 % w/v
Compound: CCCCN1CCCCC1C(=O)Nc1c(C)cccc1C (centres unmarked) [bupivacaine hydrochloride]
